Reference: US20030225081A1, “Pyridazinones and triazinones and medicinal use thereof” (priority 2000, published 2003)

Test system: AMPA receptor
Experiment: Suppressing action to calcium influx into nerve cells induced by AMPA
Assay type: cell-based
Details: Fura2-AM, stimulation with 2 μM AMPA, primary culture of rat embryo cerebral cortex nerve cells, 1 μM MK-801
Source text: Suppressing Action to Calcium Influx into Nerve Cells Induced by AMPA
The suppressing action of the compounds of the present invention to calcium influx into nerve cells induced by AMPA was investigated using the primary culture system of nerve cells of cerebral cortex of embryo of rat.
Cerebral cortex was cut out from the brain of rat of gestational 18 days and treated with trypsin and DNase to disperse the cells. The cells were flown by MEM containing 10% of serum, sown in a culture bottle and astrocytes were proliferated. The astrocytes were re-dispersed by trypsin and sown in a 96-well plate. After incubation for one week, it was confirmed that the astrocytes covered all over the bottom and then the nerve cells of cerebral cortex which was dispersed by the above method were sown thereupon. After incubation for 24 hours, the medium was changed, the incubation was carried out for one week and, after that, the medium was changed to that containing 1 μM of MK-801. Nerve cells which were incubated for not shorter than 8 to 10 days were used.
Calcium influx into the cells was measured using Fura2-AM which was a calcium-sensitive fluorescent dye. It was treated in a medium containing Fura2-AM for 1 hour, incorporated into the cells, exchanged to a Tyrode solution containing 1 μM MK-801 and stimulation was carried out using 2 μM AMPA. Change in the amount of calcium flown into the cells were measured as the change in the fluorescent intensity at the exciting wave length of 340/380 nm. […] As the control compound, GYKI52466 (Le Peillet, et al., Brain Res., 571, 115, 1992) was used.

Compound | IC50
N#Cc1ccccc1N1N=C2c3cc(F)ccc3OCC2C(c2ccccc2)C1=O (stereo not shown) [Example 48, 2-(2-Cyanophenyl)-9-fluoro-4-phenyl-2,3,4,4a-tetrahydro-5H-(1)benzopyrano[4,3-c]pyridazin-3-one] | 100 nM
N#Cc1ccccc1N1N=C2c3ccccc3OCC2C(c2cccnc2)C1=O (stereo not shown) [Example 49, 2-(2-Cyanophenyl)-4-(3-pyridyl)-2,3,4,4a-tetrahydro-5H-(1) benzopyrano[4,3-c]pyridazin-3-one] | 70 nM
O=C1C(c2cccnc2)C2COc3ccccc3C2=NN1c1ccccc1Br (stereo not shown) [Example 50, 2-(2-Bromophenyl)-4-(3-pyridyl)-2,3,4,4a-tetrahydro-5H-(1)benzopyrano[4,3-c]pyridazin-3-one] | 100 nM
O=c1c(-c2ccccc2O)cc(-c2ccccn2)nn1-c1ccccc1Br [Example 51, 2-(2-Bromophenyl)-4-(2-hydroxyphenyl)-6-(2-pyridyl)-3 (2H)-pyridazinone] | 800 nM
COc1cccc(-c2cc(-c3ccccn3)nn(-c3ccccc3Br)c2=O)c1 [Example 52, 2-(2-Bromophenyl)-4-(3-methoxyphenyl)-6-(2-pyridyl)-3 (2H)-pyridazinone] | 200 nM
N#Cc1ccccc1-n1nc2c(c(-c3ccccc3)c1=O)C(O)Oc1ccc(F)cc1-2 (stereo not shown) [Example 53, 2-(2-Cyanophenyl)-9-fluoro-5-hydroxy-4-phenyl-2,3-dihydro-5H-(1)benzopyrano[4,3-c]pyridazin-3-one] | 500 nM
N#Cc1ccccc1-n1nc2c(c(-c3ccccc3)c1=O)COc1ccc(F)cc1-2 [Example 54, 2-(2-Cyanophenyl)-9-fluoro-4-phenyl-2,3-dihydro-5H-(1)benzopyrano[4,3-c]pyridazin-3-one] | 100 nM
O=c1c(-c2ccccc2OS(=O)(=O)C(F)(F)F)cc(-c2ccccn2)nn1-c1ccccc1 [Example 55, 2-Phenyl-6-(2-pyridyl)-4-(2-trifluoromethylsulfonyloxyphenyl)-3 (2H)-pyridazinone] | 800 nM
O=c1c(-c2ccccc2)cc(-c2ccccn2)nn1-c1ccccc1Br [Example 56, 2-(2-Bromophenyl)-4-phenyl-6-(2-pyridyl)-3 (2H)-pyridazinone] | 200 nM
O=c1c(-c2cccnc2)c2c(nn1-c1ccccc1Br)-c1ccccc1OC2 [Example 57, 2-(2-Bromophenyl)-4-(3-pyridyl)-2,3-dihydro-5H-(1)benzopyrano[4,3-c]pyridazine-3-one] | 200 nM
O=c1c(-c2cccnc2)c2c(nn1-c1ccccc1I)-c1ccccc1OC2 [Example 58, 2-(2-Iodophenyl)-4-(3-pyridyl)-2,3-dihydro-5H-(1)benzopyrano[4,3-c]pyridazin-3-one] | 400 nM
O=c1c(-c2ccccc2Br)cc(-c2ccccn2)nn1-c1ccccc1 [Example 60, 4-(2-Bromophenyl)-2-phenyl-6-(2-pyridyl)-3 (2H)-pyridazinone] | 200 nM
O=c1c(-c2cccnc2)cc(-c2ccccn2)nn1-c1ccccc1Br [Example 61, 2-(2-Bromophenyl)-4-(3-pyridyl)-6-(2-pyridyl)-3 (2H)-pyridazinone] | 300 nM
O=C(NCCN1CCOCC1)c1cc(-c2ccccc2)nn(-c2ccccc2Cl)c1=O [Example 62, 2-(2-Chlorophenyl)-4-(4-morpholinoethylaminocarbonyl)-6-phenyl-3 (2H)-pyridazinone] | 4000 nM
O=c1c(-c2cccnc2)cc(-c2ccccn2)nn1-c1ccccc1[N+](=O)[O-] [Example 63, 2-(2-Nitrophenyl)-4-(3-pyridyl)-6-(2-pyridyl)-3 (2H)-pyridazinone] | 300 nM
Cc1cccc(-n2nc(-c3ccccn3)cc(-c3cccnc3)c2=O)c1 [Example 64, 2-(3-Tolyl)-4-(3-pyridyl)-6-(2-pyridyl)-3 (2H)-pyridazinone] | 700 nM
N#Cc1ccccc1-n1nc(-c2ncccn2)cc(-c2ccccc2)c1=O [Example 70, 2-(2-Cyanophenyl)-4-phenyl-6-(2-pyrimidinyl)-3 (2H)-pyridazinone] | 800 nM
O=c1c(-c2cccnc2)cc(-c2ccccn2)nn1-c1ccsc1 [Example 73, 2-(Thiophen-3-yl)-4-(3-pyridyl)-6-(2-pyridyl)-3 (2H)-pyridazinone] | 1100 nM
O=c1c(-c2ccccc2)cc(-c2ccccn2)nn1-c1cccnc1 [Example 74, 2-(3-Pyridyl)-4-phenyl-6-(2-pyridyl)-3 (2H)-pyridazinone] | 900 nM
O=c1c(-c2ccccc2)cc(-c2ncccn2)nn1-c1cccnc1 [Example 75, 2-(3-Pyridyl)-4-phenyl-6-(2-pyrimidinyl)-3 (2H)-pyridazinone] | 700 nM

Compound | IC50
COc1ccccc1N1N=C(c2ccccn2)CC(c2cccnc2)C1=O (stereo not shown) [Example 76, 2-(2-Methoxyphenyl)-4-(3-pyridyl)-6-(2-pyridyl)-4,5-dihydro-3 (2H)-pyridazinone] | 6200 nM
O=c1c(-c2ccccc2)cc(-c2ccccn2)nn1-c1ccc[n+]([O-])c1 [Example 79, 2-(3-Pyridin-1-oxide)-4-phenyl-6-(2-pyridyl)-3 (2H)-pyridazinone] | 7200 nM
N#Cc1ccc(-n2nc(-c3ccccn3)cc(-c3ccccc3)c2=O)cn1 [Example 80A, 2-(2-Cyanopyridin-5-yl)-4-phenyl-6-(2-pyridyl)-3 (2H)-pyridazinone] | 7100 nM
N#Cc1ncccc1-n1nc(-c2ccccn2)cc(-c2ccccc2)c1=O [Example 80B, 2-(2-Cyanopyridin-3-yl)-4-phenyl-6-(2-pyridyl)-3 (2H)-pyridazinone] | 200 nM
N#Cc1ncccc1-n1nc(-c2ncccn2)cc(-c2ccccc2)c1=O [Example 81B, 2-(2-Cyanopyridin-3-yl)-4-phenyl-6-(2-pyrimidinyl)-3 (2H)-pyridazinone] | 700 nM
N#Cc1ccccc1-n1nc(-c2cnccn2)cc(-c2ccccc2)c1=O [Example 82, 2-(2-Cyanophenyl)-4-phenyl-6-(2-pyrazinyl)-3 (2H)-pyridazinone] | 1200 nM
N#Cc1ccccc1-n1nc(-c2nccs2)cc(-c2ccccc2)c1=O [Example 83, 2-(2-Cyanophenyl)-4-phenyl-6-(thiazol-2-yl)-3 (2H)-pyridazinone] | 600 nM
COc1ccccc1N1CC(c2ccccn2)=NN(c2ccccc2Br)C1=O [Example 85, 2-(2-Bromophenyl)-4-(2-methoxyphenyl)-6-(2-pyridyl)-4,5-dihydro-1,2,4-triazin-3 (2H)-one] | 200 nM
O=C1N(c2ccccc2O)CC(c2ccccn2)=NN1c1ccccc1Br [Example 86, 2-(2-Bromophenyl)-4-(2-hydroxyphenyl)-6-(2-pyridyl)-4,5-dihydro-1,2,4-triazin-3 (2H)-one] | 100 nM
COc1ccccc1N1CC(c2ccccn2)=NN(c2ccccc2C#N)C1=O [Example 87, 2-(2-Cyanophenyl)-4-(2-methoxyphenyl)-6-(2-pyridyl)-4,5-dihydro-1,2,4-triazin-3 (2H)-one] | 50 nM
COc1ccccc1C1=NN(c2ccccc2Br)C(=O)N(c2ccccc2)C1 [Example 89, 2-(2-Bromophenyl)-6-(2-methoxyphenyl)-4-phenyl-4,5-dihydro-1,2,4-triazin-3 (2H)-one] | 5000 nM
O=C1N(c2ccccc2)CC(c2ccccc2O)=NN1c1ccccc1Br [Example 90, 2-(2-Bromophenyl)-6-(2-hydroxyphenyl)-4-phenyl-4,5-dihydro-1,2,4-triazin-3 (2H)-one] | 900 nM
CN(C)CCOc1ccccc1C1=NN(c2ccccc2Br)C(=O)N(c2ccccc2)C1 [Example 91, 2-(2-Bromophenyl)-6-(2-dimethylaminoethoxyphenyl)-4-phenyl-4,5-dihydro-1,2,4-triazin-3 (2H)-one] | 300 nM
COc1ccccc1C1=NN(c2ccccc2Br)C(=O)N(c2ccccn2)C1 [Example 92, 2-(2-Bromophenyl)-6-(2-methoxyphenyl)-4-(2-pyridyl)-4,5-dihydro-1,2,4-triazin-3 (2H)-one] | 100 nM
N#Cc1ccccc1N1N=C(c2ccccc2O)CN(c2ccccc2)C1=O [Example 93, 2-(2-Cyanophenyl)-6-(2-hydroxyphenyl)-4-phenyl-4,5-dihydro-1,2,4-triazin-3 (2H)-one] | 30 nM
O=C1N(c2cc(O)ccc2O)CC(c2ccccc2O)=NN1c1ccccc1Br [Example 94, 2-(2-Bromophenyl)-4-(2,5-dihydroxyphenyl)-6-(2-hydroxyphenyl)-4,5-dihydro-1,2,4-triazin-3 (2H)-one] | 900 nM
O=C1N(c2cc(O)ccc2O)CC(c2ccccc2O)=NN1c1ccccc1 [Example 95, 4-(2,5-Dihydroxyphenyl)-6-(2-hydroxyphenyl)-2-phenyl-4,5-dihydro-1,2,4-triazin-3 (2H)-one] | 50 nM
N#Cc1ccccc1N1N=C(c2ccccn2)CN(c2ccccc2O)C1=O [Example 96, 2-(2-Cyanophenyl)-4-(2-hydroxyphenyl)-6-(2-pyridyl)-4,5-dihydro-1,2,4-triazin-3 (2H)-one] | 600 nM
COc1ccccc1C1=NN(c2ccccc2)C(=O)N(c2ccccc2C#N)C1 [Example 98, 4-(2-Cyanophenyl)-6-(2-methoxyphenyl)-2-phenyl-4,5-dihydro-1,2,4-triazin-3 (2H)-one] | 400 nM
COc1ccccc1C1=NN(c2ccccc2C#N)C(=O)N(c2ccccn2)C1 [Example 99, 2-(2-Cyanophenyl)-6-(2-methoxyphenyl)-4-(2-pyridyl)-4,5-dihydro-1,2,4-triazin-3 (2H)-one] | 70 nM
